One experiment concerns TGF-β. The experiment is described as follows: Effects on the extracellular matrix (proteoglycan) production by TGF-β in NRK-49F fibroblasts. The format is cell-based. To be noted: Rattus norvegicus, NRK-49F cells, 3 ng/ml TGF-β, [35S]-proteoglycan radioactivity, 24 hours, read-out: TGF-β inhibitory rate (%); for inhibition at 3 µM: test compound 3 μM; for inhibition at 10 µM: test compound 10 μM. As for the experimental part: Effects on the Extracellular Matrix Production by TGF-β
The effect of the compounds of Examples on the production of proteoglycan when TGF-β was added to fibroblast was evaluated.
NRK-49F cells (rat fibroblast) were cultured in Dulbecco's Modified Eagle Medium (DMEM: manufactured by GIBCO) containing 10% bovine serum, and used in this experiment. The cells were put into a 96-well plate in an amount of 2.5×10^4 cells/100 μl/well. On the next day, the medium in the plate was exchanged to the DMEM medium containing 3 ng/ml of TGF-β (manufactured by Nacalai Tesque, Inc.), 0.5 μCi/well of [^35S]-Na2SO4, and a test compound. Twenty-four hours thereafter, the supernatant was collected, and subjected to SDS-polyacrylamide gel electrophoresis (SDS-PAGE) in a conventional manner. The gel after electrophoresis was dried with a gel drier, and exposed to an imaging plate, which was analyzed with BSA2000 (manufactured by Fuji Photo Film). The radioactivity of proteoglycan to be electrophoresed was measured, and the TGF-β inhibitory rate was calculated by the following equation. TGF-β Inhibitory rate (%)=(A−B)×100/(A−C) • A: Radioactivity in the presence of TGF-β without a test compound • B: Radioactivity in the presence of TGF-β and a test compound • C: Radioactivity in the absence of TGF-β and a test compound

Experiment [1] concerns rat Thy-1 nephritis model. Nature of the experiment: Evaluation using rat Thy-1 nephritis model (kidney fibrosis). Format: in vivo. To be noted: 7 days. As for the experimental part:
The anti-fibrosis activity was evaluated on the compounds of Examples 9, 14, 110, 120 and 136 by using a rat Thy-1 nephritis model, which is an animal model for kidney fibrosis (cf., “Kidney and Dialysis”, vol. 31, p. 343-347 (1991)). Thy-1 is one of the surface antigens of thymocyte.
Male Wister rats were purchased from Charles River Japan, Inc. at an age of 3-weeks old. After pre-feeding, the animals were used in this experiment when their body weights became about 100 g. The animals were kept in a room being controlled at a temperature of 24±2° C. under a humidity of 55±10%, with an illumination cycle of light on (8:00 to 20:00). The animals were given solid diet pellets (CRF-1, Oriental Yeast Co. Ltd.) and sterilized tap water ad libitum.
Anti-Thy-1 monoclonal antibody (OX-7, Biosource International Inc.) was administered to the rats at a dose of 50 μg/100 g of body weight at the tail vein. Then, the animals were grouped into the vehicle-treated group (n=8) and the test compound-treated group (n=8) with respect to the body weight. From the day of administration of anti-Thy-1 monoclonal antibody, a test compound, which was suspended in a 0.5% carboxymethylcellulose (vehicle), […] To the vehicle-treated group, a vehicle was administered likewise.
After the administration for 7 days, the right kidney of the rats was taken out, and the content of hydroxyproline therein, which was an index for organ fibrosis, was measured according to the method of J. F. Woessner, et al. (Arch. Biochem. Biophys. Vol. 93 p440 (1961)). That is, the kidney was homogenized, and 500 μL of the suspension was dried, and thereto was added a 4N aqueous sodium hydroxide solution (225 μL). The mixture was heated on a heat block at 100° C. for 15 minutes to hydrolyze proteins, and the mixture was neutralized with a 1.4 M aqueous citric acid solution (275 μL). The mixture was centrifuged at 3000 rpm for 10 minutes at room temperature, and the supernatant was collected as a kidney extract. To the extract were added Chloramine T solution and an Ehrlich solution (which was prepared by adding n-propanol (31 ml) to p-dimethylaminobenzaldehyde (7.5 g), and further slowly adding thereto a 60% perchloric acid (13 mL), and followed by adjusting the volume to 50 ml by distilled water), and the mixture was reacted at 65° C. for 15 minutes. The OD 550 (absorbance at 550 nm) was measured, and the concentration of hydroxyproline was calculated from the analytical curve of hydroxyproline. The content of hydroxyproline thus obtained was adjusted with respect to the protein amount in the kidney extract.
Each value was expressed in average value±standard deviation of 8 animals in each group.

On to `Cc1ccc(C(=O)c2cccn2Cc2cnc3ccccc3c2)cc1` [Example 2], for which, in the experiment with TGF-β, the inhibition at 3 µM is 33% and the inhibition at 10 µM amounted to 61%.

Take `Cc1ccc(C(=O)c2cccn2Cc2ccnc3ccccc23)cc1` [Example 3]: in the experiment on TGF-β, the inhibition at 3 µM stood at 25% and the inhibition at 10 µM stood at 38%.

For `Cc1ccc(Cc2cccn2Cc2ccc3ccccc3n2)cc1` [Example 5], in the experiment on TGF-β, the inhibition at 3 µM worked out at 6% and the inhibition at 10 µM turned out to be 51%.

For the compound `Cc1ccc(S(=O)(=O)n2cccc2C(O)c2cnc3ccccc3c2)cc1` (centres unmarked) [Example 6, (1-p-toluenesulfonyl-1H-pyrrol-2-yl)(3-quinolyl)methanol], in the experiment with TGF-β, the inhibition at 3 µM was determined as 66% and the inhibition at 10 µM turned out to be 88%.

For the compound `Cc1ccc(Cn2cccc2Cc2cnc3ccccc3c2)cc1` [Example 7, 1-(4-methylbenzyl)-2-(3-quinolylmethyl)-1H-pyrrole], in the experiment with TGF-β, the inhibition at 3 µM came out at 44% and the inhibition at 10 µM is 78%.

Regarding `Cc1ccc(C(=O)c2cccn2Cc2cnc3cccnc3n2)cc1` [Example 8], in the experiment with TGF-β, the inhibition at 3 µM is 16% and the inhibition at 10 µM is 46%.

Consider `Cc1ccc(C(=O)c2cccn2C/C=C/c2ccc(Cl)cc2C(=O)O)cc1` [Example 9], for which, in the experiment on TGF-β, the inhibition at 3 µM worked out at 88% and the inhibition at 10 µM is 91%. For the same compound, in experiment [1] (15 mg/kg oral once a day, right kidney, Table 2: normal rat 6.7 ± 1.6, vehicle 8.7 ± 2.0, mean ± SD, n=8), the Hydroxyproline content was found to be 7.2 ± 2.1 μg/mg protein.

For `C=CCOc1ccc(C(=O)c2cccn2Cc2cnc3ccccc3c2)cc1` [Example 10], in the experiment on TGF-β, the inhibition at 3 µM stood at 63% and the inhibition at 10 µM turned out to be 86%.

Regarding `O=C(c1ccc(O)cc1)c1cccn1Cc1cnc2ccccc2c1` [Example 14], in the experiment with TGF-β, the inhibition at 3 µM was found to be 40% and the inhibition at 10 µM is 56%. This compound also showed a Hydroxyproline content in experiment [1] (150 mg/kg oral once a day, right kidney, Table 2: normal rat 6.7 ± 1.6, vehicle 8.7 ± 2.0, P < 0.05 vs vehicle) of 6.3 ± 1.3 μg/mg protein.

As for `Cc1ccc(C(=O)c2cccn2C/C=C/c2ccccc2C(=O)O)cc1` [Example 19], in the experiment with TGF-β, the inhibition at 3 µM came to 51% and the inhibition at 10 µM is 72%.

Take `Cc1ccc(C(O)c2cccn2Cc2cnc3ccccc3c2)cc1` (centres unmarked) [Example 20, [1-(3-quinolylmethyl)-1H-pyrrol-2-yl](4-methylphenyl)methanol]: in the experiment with TGF-β, the inhibition at 3 µM amounted to 61% and the inhibition at 10 µM is 90%.

On to `Cc1ccc(Cc2cccn2Cc2cnc3ccccc3c2Cl)cc1` [Example 25], for which, in the experiment with TGF-β, the inhibition at 3 µM is 6% and the inhibition at 10 µM was found to be 74%.

For the compound `Cc1ccc(C(=O)c2cccn2Cc2cnc3cccc(C(N)=O)c3c2)cc1` [Example 31], in the experiment with TGF-β, the inhibition at 3 µM worked out at 34% and the inhibition at 10 µM was found to be 38%.

As for `Cc1ccc(C(=O)c2cccn2Cc2cnc3cc(Cl)ccc3c2)cc1` [Example 33], in the experiment on TGF-β, the inhibition at 3 µM was found to be 74% and the inhibition at 10 µM was found to be 91%.

In the case of `Cc1ccc(C(=O)c2cccn2Cc2cnc3c(C#N)cccc3c2)cc1` [Example 38], in the experiment with TGF-β, the inhibition at 3 µM was 51% and the inhibition at 10 µM was 40%.

For `Cc1ccc(C(=O)c2cccn2Cc2cnc3cccc(C(=O)O)c3c2)cc1` [Example 43], in the experiment on TGF-β, the inhibition at 3 µM came to 31% and the inhibition at 10 µM was 66%.

As for `Cc1ccc(C(=O)c2cccn2Cc2cnc3c(/C=C/C(=O)N(C)C)cccc3c2)cc1` [Example 61], in the experiment with TGF-β, the inhibition at 3 µM came to 15% and the inhibition at 10 µM was 86%.

As for `Cc1ccc(C(=O)c2cccn2Cc2cnc3ccccc3n2)cc1` [Example 64], in the experiment with TGF-β, the inhibition at 3 µM came to 43% and the inhibition at 10 µM came to 75%.

Turning to `Cc1ccc(C(=O)c2cccn2Cc2cnc3c(C#N)cccc3n2)cc1` [Example 66], in the experiment with TGF-β, the inhibition at 3 µM stood at 88% and the inhibition at 10 µM was 94%.

As to `Cc1ccc(C(=O)c2cccn2Cc2cnc3cc(C#N)ccc3n2)cc1` [Example 67], in the experiment with TGF-β, the inhibition at 3 µM was 55% and the inhibition at 10 µM came to 75%.

In the case of `Cc1ccc(C(=O)c2cccn2Cc2cnc3ncccc3n2)cc1` [Example 73], in the experiment on TGF-β, the inhibition at 3 µM was determined as 70% and the inhibition at 10 µM came to 85%.

For the compound `CN(C)C(=O)c1ccc(C(=O)c2cccn2Cc2cnc3ccccc3c2)cc1` [Example 76], in the experiment on TGF-β, the inhibition at 3 µM worked out at 56% and the inhibition at 10 µM turned out to be 58%.

As for `Cc1ccc(C(=O)c2cccn2Cc2cnc3ccccc3c2)cc1OCC(O)CO` (centres unmarked) [Example 83], in the experiment with TGF-β, the inhibition at 3 µM came to 42% and the inhibition at 10 µM amounted to 47%.

With `Cc1ccc(C(=O)c2cccn2Cc2cnc3ccccc3c2)c(O)c1` [Example 85], in the experiment on TGF-β, the inhibition at 3 µM was determined as 29% and the inhibition at 10 µM stood at 75%.

As to `COc1ccc(C(=O)c2cccn2Cc2cnc3ccccc3n2)cc1` [Example 91], in the experiment with TGF-β, the inhibition at 3 µM amounted to 66% and the inhibition at 10 µM was found to be 73%.

In the case of `O=C(c1ccc(OCCN2CCOCC2)cc1)c1cccn1Cc1cnc2ccccc2c1` [Example 97], in the experiment on TGF-β, the inhibition at 3 µM turned out to be 58% and the inhibition at 10 µM is 75%.

In the case of `COC(=O)c1cc(Cl)ccc1/C=C/Cn1cccc1C(=O)c1ccc(O)cc1` [Example 103], in the experiment on TGF-β, the inhibition at 3 µM worked out at 55% and the inhibition at 10 µM came out at 90%.

Turning to `Cc1ccc(C(=O)c2cccn2Cc2cnc3nccnc3c2)cc1` [Example 105], in the experiment on TGF-β, the inhibition at 3 µM stood at 14% and the inhibition at 10 µM came to 48%.

Consider `Cc1ccc(C(=O)c2cc(C)cn2Cc2cnc3ccccc3c2)cc1` [Example 107], for which, in the experiment on TGF-β, the inhibition at 3 µM was found to be 90% and the inhibition at 10 µM amounted to 95%.

Turning to `Cc1ccc(C(=O)c2c(C)ccn2Cc2cnc3ccccc3c2)cc1` [Example 108], in the experiment with TGF-β, the inhibition at 3 µM is 42% and the inhibition at 10 µM was 56%.

Consider `COc1ccc(C(=O)c2cc(C)cn2C/C=C/c2ccc(Cl)cc2C(=O)O)cc1` [Example 110], for which the Hydroxyproline content in experiment [1] (1.5 mg/kg oral, kidney, Table 3: normal rat 8.2 ± 0.8, vehicle 11.8 ± 0.6, P < 0.01 vs vehicle) was 10.1 ± 0.8 μg/mg protein; in experiment [1] (5 mg/kg oral, kidney, Table 3: normal rat 8.2 ± 0.8, vehicle 11.8 ± 0.6, P < 0.01 vs vehicle), 9.5 ± 0.8 μg/mg protein; in experiment [1] (15 mg/kg oral, kidney, Table 3: normal rat 8.2 ± 0.8, vehicle 11.8 ± 0.6, P < 0.01 vs vehicle), 9.7 ± 0.7 μg/mg protein; in experiment [1] (50 mg/kg oral, kidney, Table 3: normal rat 8.2 ± 0.8, vehicle 11.8 ± 0.6, P < 0.01 vs vehicle), 9.5 ± 0.6 μg/mg protein.

On to `COC(=O)c1cc(Cl)ccc1/C=C/Cn1cc(C)cc1C(=O)c1ccc(O)cc1` [Example 111], for which, in the experiment on TGF-β, the inhibition at 3 µM came to 90% and the inhibition at 10 µM was 118%.

On to `Cc1ccc(C(=O)c2cc(C=O)cn2C/C=C/c2ccc(Cl)cc2C(=O)O)cc1` [Example 112], for which, in the experiment with TGF-β, the inhibition at 3 µM came out at 23% and the inhibition at 10 µM came to 73%.

Regarding `Cc1ccc(C(=O)c2cccn2C/C=C/c2ccc(Cl)cc2C(=O)NS(C)(=O)=O)cc1` [Example 115], in the experiment with TGF-β, the inhibition at 3 µM turned out to be 46% and the inhibition at 10 µM amounted to 56%.

Consider `CNC(=O)c1cc(Cl)ccc1/C=C/Cn1cccc1C(=O)c1ccc(C)cc1` [Example 117], for which, in the experiment with TGF-β, the inhibition at 3 µM amounted to 71% and the inhibition at 10 µM was found to be 83%.

The values are drawn from patent publication US20050227978A1, “Fibrosis inhibitor” (Sumitomo Pharmaceuticals Co., Ltd., priority 2002, published 2005).
